Reference: patent publication US11844811B2, “Methods and compositions for alleviating respiratory dysfunction” (MYFITSTRIP LLC, priority 2018, dated 2023)
Where two headings read alike, the source gives them in different places.

Legend:
[1] = hypertensives; 5-7 mM (310-434 mg/L/day) nitrate; cited from earlier work

O=[N+]([O-])O [nitrate]
reduction of systolic blood pressure [1]: 4-11 mmHg

O=C1O[C@H]([C@@H](O)CO)C(O)=C1O [ascorbate]
nitric oxide bioavailability (salivary nitrite as surrogate marker) (human, in vivo): boosted and extended

O=[N+]([O-])[O-].[K+] [KNO3, potassium nitrate]
salivary nitrite (ingestion): elevated | Salivary NO2 (subject 1, 500 mg KNO3 (5 mg/Kg) at 8:00, time 1:00PM): 120 µM | Salivary NO2 (subject 1, 500 mg KNO3 (5 mg/Kg) at 8:00, time 2:00): 110 µM | Salivary NO2 (subject 1, 500 mg KNO3 (5 mg/Kg) at 8:00, time 2:45): <20 µM | Salivary NO2 (subject 1, 500 mg KNO3 (5 mg/Kg) at 8:00, time 9:00): 400 µM | Salivary NO2 (subject 1, 500 mg KNO3 (5 mg/Kg) at 8:00, time 11:00): 220 µM | Salivary NO2 (subject 1, 500 mg KNO3 (5 mg/Kg) at 8:00, time 11:40): 110 µM | Salivary NO2 (subject 2, 1,000 mg KNO3 (12 mgNO3/Kg) at 10:00, time 3:00): 220 µM | Salivary NO2 (subject 2, 1,000 mg KNO3 (12 mgNO3/Kg) at 10:00, time 4:00): 110 µM | Salivary NO2 (subject 2, 1,000 mg KNO3 (12 mgNO3/Kg) at 10:00, time 5:45): 20 µM | Salivary NO2 (subject 2, 1,000 mg KNO3 (12 mgNO3/Kg) at 10:00, time 10:30): 200 µM
